According to patent US20120152149A1, “USE OF 1,3-DIOLS AS BIOCIDES” (BASF SE, priority 2009, published 2012):
Read-outs that look alike come from different tables or passages of the source.

Assays:
Format in all cases: cell-based
A. niger IMI 149007 = assay: Microstatic activity, MIC in tryptone soy broth; conditions: Aspergillus niger, IMI149007, 120 h, 25° C., 5 days
Protocol: (§1) For this, in each case a 40 percent strength by weight solution of a diol in propylene glycol was prepared at 60° C. This solution was diluted with a double-strength soy solution (double-strength tryptone soy broth) as nutrient medium in the volume ratio 1:1. Further dilution with soy solution produced solutions with the following concentrations: 400 000 ppm (40%), 200 000 ppm (20%), 100 000 ppm (10%), 50 000 ppm (5%), 25 000 ppm (2.5%), 12 500 ppm (1.25%), 6250 ppm (0.625%), 3125 ppm (0.3125%). Pure soy solution was used as negative control. The positive control used was a solution of 5 ml of soy solution which has been treated with 0.1 ml of the respective microorganism. The test solutions consisted of 5 ml of the above-described soy solutions of the diols in the particular concentration which have been mixed with 0.1 ml of the respective microorganism. The samples and controls were incubated in the case of the bacteria at 30° C. for 48 hours, and in the case of fungi over 5 days at 25° C. In each case, the MIC (Minimum Inhibitory Concentration) value was determined. This value indicates the minimum concentration above which the growth of the microorganisms was visibly hindered compared to the corresponding sample without addition of the diol. […] For example, this was evident from the occurrence of clouding or visible growth of the microorganism. […] The MIC value stated is a range between the next higher concentration of a positive test and the same and/or lower concentration of a first negative test.

C. albicans NCPF 3179 = assay: Microstatic activity, MIC in tryptone soy broth; conditions: 25° C., 5 days; for MIC: Candida albicans, NCPF3179, 120 h
Protocol: as §1

E. coli NCIMB 8545 = assay: Microstatic activity, MIC in tryptone soy broth; conditions: Escherichia coli, NCIMB8545, 30° C., 48 hours
Protocol: as §1

[1] = tested on: P. aeruginosa NCIMB 10421; assay: Microstatic activity, MIC in tryptone soy broth; conditions: Pseudomonas aeruginosa, NCIMB10421, 30° C., 48 hours
Protocol: as §1

P. vulgaris NCIMB 4175 = assay: Microstatic activity, MIC in tryptone soy broth; conditions: Proteus vulgaris, NCIMB4175, 30° C., 48 hours
Protocol: as §1

S. aureus NCIMB 9578 = assay: Microstatic activity, MIC in tryptone soy broth; conditions: Staphylococcus aureus, NCIMB9578, 30° C., 48 hours
Protocol: as §1

[2] = tested on: series of tested microorganisms (bacteria and fungi); assay: Microstatic activity, highest MIC from the series of tested microorganisms; conditions: highest measured MIC from the series of tested microorganisms
Protocol: The following microorganisms were used;to test the biocidal effect against various bacteria and fungi: In each case, the MIC (Minimum Inhibitory Concentration) value was determined. This value indicates the minimum concentration above which the growth of the microorganisms was visibly hindered compared to the corresponding sample without addition of the diol. The MIC value stated is a range between the next higher concentration of a positive test and the same and/or lower concentration of a first negative test. In the last line of each of the tables below, a “maximum” value is listed. This value indicates the highest measured MIC value in each case from the series of tested microorganisms.

A. niger ATCC 16404 [3] = assay: Preservation stress test, example formulation 1 (standard emulsion O/W); conditions: 1% active substance
Protocol: (§2) Preservation stress tests (PSTs) were carried out in order to determine the preserving activity of the diols. In the preservation stress test, this is simulated through artificial loadings with microorganisms. These can either be inoculated as mixed population or individually in mixtures independent of one another. The inoculated product samples are incubated under defined conditions and, after defined times, samples are taken in order to determine the germ loading. In the case of adequate preservation, the number of microorganisms should, depending on the type, either decrease or remain constant in order to satisfy the requirements specified, e.g. in Ph. Eur. 6.0. To investigate the preserving effect of the diols, application-typical amounts of the diols were incorporated into example formulations. […] [table] These example formulations were used to prepare various mixtures which each comprised 1% active substance or comprised water instead of the active substance as placebo mixtures. These mixtures were in each case inoculated with the test germs such that a germ loading of 10^5-10^6 CFU/g was present in the test mixture. The bacteria were either used individually for the inoculation or as a mixed culture. To determine the starting germ count, immediately after inoculation, an aliquot was taken, diluted in dilution medium (phosphate buffer, 0.07 molar pH 7.4 (+/−0.2), with 1% Tween 80+0.3% soya lecithin), and the surviving germ count was determined in the dilution stages 10^−1 to 10^−3. The inoculated product samples then incubated for a total of 28 d at 20-25° C. After 2 d, 7 d, 14 d and after 28 d, aliquots were taken and diluted in dilution medium (phosphate buffer, 0.07 molar pH 7.4 (+/−0.2), with 1% Tween 80+0.3% soya lecithin). The surviving germ counts were determined in the dilution stages 10^−1 to 10^−4. The reference point taken for determining the reduction in germ count was the respective initial value of the sample. The results were given as logarithmic reductions.

C. albicans ATCC 10231 [4] = assay: as above; conditions: 1% active substance
Protocol: as §2

A. niger ATCC 16404 [5] = assay: Preservation stress test, example formulation 2 (roll-on deodorant formulation); conditions: 1% active substance
Protocol: as §2

C. albicans ATCC 10231 [6] = assay: as above; conditions: 1% active substance
Protocol: as §2

S. aureus ATCC 6538 = assay: as above; conditions: 1% active substance
Protocol: as §2

[7] = lower limit of MIC range, read-out: MIC value (ppm of diol), from
[8] = upper limit of MIC range, read-out: MIC value (ppm of diol), to
[9] = lower limit, read-out: Maximum MIC value (ppm of diol), from

Structure (SMILES): CC(C)C(C)(CO)CO [IMPD, 2-isopropyl-2-methylpropane-1,3-diol]
- MIC (A. niger IMI 149007; [7]): > 25 mg/mL
- MIC (A. niger IMI 149007; [8]): ≤ 50 mg/mL
- MIC (C. albicans NCPF 3179; [7]): > 25 mg/mL
- MIC (C. albicans NCPF 3179; [8]): ≤ 50 mg/mL
- MIC (E. coli NCIMB 8545; [7]): > 6.25 mg/mL
- MIC (E. coli NCIMB 8545; [8]): ≤ 12.5 mg/mL
- MIC [1, 7]: > 12.5 mg/mL
- MIC [1, 8]: ≤ 25 mg/mL
- MIC (P. vulgaris NCIMB 4175; [7]): > 6.25 mg/mL
- MIC (P. vulgaris NCIMB 4175; [8]): ≤ 12.5 mg/mL
- MIC (S. aureus NCIMB 9578; [7]): > 12.5 mg/mL
- MIC (S. aureus NCIMB 9578; [8]): ≤ 25 mg/mL
- MIC [2, 9]: > 25 mg/mL
- MIC ([2]; upper limit, read-out: Maximum MIC value (ppm of diol), to): ≤ 50 mg/mL
- Microbicidal activity given as logarithmic reduction in germ count (A. niger ATCC 16404 [3]; 48 h): 1 log. Red.
- Microbicidal activity given as logarithmic reduction in germ count (A. niger ATCC 16404 [3]; 7 d): 1 log. Red.
- Microbicidal activity given as logarithmic reduction in germ count (A. niger ATCC 16404 [3]; 14 d): 2 log. Red.
- Microbicidal activity given as logarithmic reduction in germ count (A. niger ATCC 16404 [3]; 28 d): 3 log. Red.
- Microbicidal activity given as logarithmic reduction in germ count (C. albicans ATCC 10231 [4]; 48 h): 1 log. Red.
- Microbicidal activity given as logarithmic reduction in germ count (C. albicans ATCC 10231 [4]; 7 d): ≧3 log. Red.
- Microbicidal activity given as logarithmic reduction in germ count (C. albicans ATCC 10231 [4]; 14 d): 5 log. Red.
- Microbicidal activity given as logarithmic reduction in germ count (C. albicans ATCC 10231 [4]; 28 d): 5 log. Red.
- Microbicidal activity given as logarithmic reduction in germ count (A. niger ATCC 16404 [5]; 48 h): 0 log. Red.
- Microbicidal activity given as logarithmic reduction in germ count (A. niger ATCC 16404 [5]; 7 d): 0 log. Red.
- Microbicidal activity given as logarithmic reduction in germ count (A. niger ATCC 16404 [5]; 14 d): 0 log. Red.
- Microbicidal activity given as logarithmic reduction in germ count (C. albicans ATCC 10231 [6]; 48 h): 0 log. Red.
- Microbicidal activity given as logarithmic reduction in germ count (C. albicans ATCC 10231 [6]; 7 d): 0 log. Red.
- Microbicidal activity given as logarithmic reduction in germ count (C. albicans ATCC 10231 [6]; 14 d): 0 log. Red.
- Microbicidal activity given as logarithmic reduction in germ count (S. aureus ATCC 6538; 48 h): ≧3 log. Red.
- Microbicidal activity given as logarithmic reduction in germ count (S. aureus ATCC 6538; 7 d): 5 log. Red.
- Microbicidal activity given as logarithmic reduction in germ count (S. aureus ATCC 6538; 14 d): 5 log. Red.
- Microbicidal activity given as logarithmic reduction in germ count (S. aureus ATCC 6538; 28 d): 5 log. Red.

Structure (SMILES): CCCCCCCCC(C)(CO)CO [OMPD, 2-octyl-2-methylpropane-1,3-diol]
- MIC (A. niger IMI 149007; [7]): > 3.12 mg/mL
- MIC (A. niger IMI 149007; [8]): ≤ 6.25 mg/mL
- MIC value (ppm of diol), from (C. albicans NCPF 3179; lower limit of MIC range): >0 ppm
- MIC (C. albicans NCPF 3179; [8]): ≤ 3.12 mg/mL
- MIC (E. coli NCIMB 8545; [7]): > 50 mg/mL
- MIC (E. coli NCIMB 8545; [8]): ≤ 100 mg/mL
- MIC [1, 7]: > 100 mg/mL
- MIC (P. vulgaris NCIMB 4175; [7]): > 50 mg/mL
- MIC (P. vulgaris NCIMB 4175; [8]): ≤ 100 mg/mL
- MIC (S. aureus NCIMB 9578; [7]): > 25 mg/mL
- MIC (S. aureus NCIMB 9578; [8]): ≤ 50 mg/mL
- MIC [2, 9]: > 100 mg/mL
- Microbicidal activity given as logarithmic reduction in germ count (A. niger ATCC 16404 [3]; 48 h): 0 log. Red.
- Microbicidal activity given as logarithmic reduction in germ count (A. niger ATCC 16404 [3]; 7 d): 0 log. Red.
- Microbicidal activity given as logarithmic reduction in germ count (A. niger ATCC 16404 [3]; 14 d): 1 log. Red.
- Microbicidal activity given as logarithmic reduction in germ count (A. niger ATCC 16404 [3]; 28 d): 1 log. Red.
- Microbicidal activity given as logarithmic reduction in germ count (C. albicans ATCC 10231 [4]; 48 h): ≧3 log. Red.
- Microbicidal activity given as logarithmic reduction in germ count (C. albicans ATCC 10231 [4]; 7 d): 5 log. Red.
- Microbicidal activity given as logarithmic reduction in germ count (C. albicans ATCC 10231 [4]; 14 d): 5 log. Red.
- Microbicidal activity given as logarithmic reduction in germ count (C. albicans ATCC 10231 [4]; 28 d): 5 log. Red.
- Microbicidal activity given as logarithmic reduction in germ count (A. niger ATCC 16404 [5]; 48 h): 0 log. Red.
- Microbicidal activity given as logarithmic reduction in germ count (A. niger ATCC 16404 [5]; 7 d): 0 log. Red.
- Microbicidal activity given as logarithmic reduction in germ count (A. niger ATCC 16404 [5]; 14 d): 0 log. Red.
- Microbicidal activity given as logarithmic reduction in germ count (C. albicans ATCC 10231 [6]; 48 h): 0 log. Red.
- Microbicidal activity given as logarithmic reduction in germ count (C. albicans ATCC 10231 [6]; 7 d): 0 log. Red.
- Microbicidal activity given as logarithmic reduction in germ count (C. albicans ATCC 10231 [6]; 14 d): 0 log. Red.
- Microbicidal activity given as logarithmic reduction in germ count (S. aureus ATCC 6538; 48 h): ≧3 log. Red.
- Microbicidal activity given as logarithmic reduction in germ count (S. aureus ATCC 6538; 7 d): 5 log. Red.
- Microbicidal activity given as logarithmic reduction in germ count (S. aureus ATCC 6538; 14 d): 5 log. Red.
- Microbicidal activity given as logarithmic reduction in germ count (S. aureus ATCC 6538; 28 d): 5 log. Red.
